From patent US12622965B2, “Therapeutical tools and methods using temperature-sensitive receptors for treating blindness” (FRIEDRICH MIESCHER INSTITUTE FOR BIOMEDICAL RESEARCH, priority 2020, dated 2026)

Key:
[1] = system: adult human ex vivo retinal explants; test: AAV transduction of adult human ex vivo retinal explants, quantified by immunofluorescence; type: cell-based; settings: CAG promoter, mean±s.d
Procedure: Finally, the inventors provided NIR sensitivity to in a blind human retina. They targeted rTRPV1 to adult human ex vivo retinal explants, kept alive in culture for eight weeks post mortem. Cultured retinas lose light sensitivity after 16 hours. Using a CAG promoter, a density of 2477±889 rTRPV1 positive photoreceptors was achieved per mm^2 of explant tissue (mean±s.d). 94.5±4.2% of rTRPV1 positive cells were photoreceptors (n=2583 rTRPV1 positive cells mm^−2, n=2477 rTRPV1 positive photoreceptors mm^−2, mean±s.d).
Human retinal tissue was obtained after corneal tissue harvest from adult multi-organ donors with no reported history of eye disease, n=2 eyes from n=2 donors. […] Light responses were recorded from samples 8 weeks post-mortem. […]
A Zeiss LSM 700 laser scanning confocal microscope was used to acquire images of antibody stained cells and tissues with an EC Plan-Neofluar 40×/1.30 oil M27 objective at up to 4 excitation laser lines according to secondary antibody specification. Expression was assessed from 1024×1024 pixel images in a z-stack with 0.75 μm steps. […] AAV transduction was quantified from retinal wholemounts. […] Quantification was performed separately for outer nuclear layer, inner nuclear layer and ganglion cell layer.

[2] = system: HEK cells expressing TRPV1.459-6x-His, TRPV1.465-6x-His or untagged TRPV1; test: whole cell voltage clamp in HEK cells expressing TRPV1 variants, activated by capsaicin; type: cell-based; settings: TRPV1 agonist capsaicin 2.5 μM bath applied; voltage clamp −60 mV; mean±s.e.m
Source text: First, they developed a system based on rat TRPV1 channels and gold nanorods with absorption maxima at 915 nm. 915 nm was selected to ensure low water absorption. […] To measure if tagged channels are functional, they performed whole cell voltage clamp in HEK cells expressing TRPV1.459-6x-His, TRPV1.465-6x-His or untagged TRPV1 while activating the channels by TRPV1 agonist capsaicin. The size of evoked currents were similar between TRPV1.465-6x-His and TRPV1 (Mann-Whitney U test, P=0.8551; TRPV1.465-6x-His, 1633±164 pA, […] 15 cells; TRPV1, 1766±276 pA, n=14 cells; mean±s.e.m), but less in TRPV1.459-6x-His (Mann-Whitney U test, P=0.0207; TRPV1.459-6x-His, 976±118 pA, n=19 cells; mean±s.e.m). Therefore, they used TRPV1.465-6x-His (rTRPV1) in subsequent experiments.
For HEK293T cell experiments, cells were maintained at 37° C. on poly-D-lysine/laminin coated coverslips (GG-12-Laminin, Neuvitro) in DMEM supplemented with 10% fetal bovine serum. Cells were transfected with plasmids containing TRP variants using branched PEI. Cells were perfused in oxygenated Ringer's medium containing 110 mM NaCl, 2.5 mM KCl, 1 mM CaCl2, 1.6 mM MgCl2, 10 mM D-glucose and 22 mM NaHCO3 at ˜36° C. for the duration of the experiment. […] Data was analyzed offline using MATLAB (MathWorks).

## TRPV1.465-6x-His: rat TRPV1 channel with 6x-His epitope tag inserted in the first extracellular loop after amino acid 465; delivered by AAV
[1]; explant tissue
  density of rTRPV1 positive photoreceptors: 2477±889 per mm^2
[1]
  rTRPV1 positive cells that were photoreceptors: 94.5±4.2%
[2]
  size of evoked currents: 1633±164 pA
